Results as given in publication PMC12510010 (The Journal of Biological Chemistry, 2025).
“Also recorded” adds a separate entry of the source. Blank lines part the entries; values can stand above or below the molecule they belong to. Ends that are not written are not given here.

What was measured:
[1] = system: CFTR-dependent fluid secretion, organoids; details: cited from earlier work
[2] = system: MRP4 (cGMP in T-84 cells); test: Ratiometric FRET of live cGMP production with sensor cygnet 2.1; format: cell-based; details: STc (100 nm) + MK571 (10 μM), vs STc alone, t test p = 0.0481
Method: (§1) Figure 4 GCC and MRP4 are functionally coupled in the intestinal epithelial cells. A, dot-blot analysis of GST-NHERF1-4 binding with the C-terminal 50 amino acids of MRP4 (MRP4C50) that contains the C-terminal PDZ-domain binding motif ETALCOOH. GST was used as a negative control. 2 and 20 ng of purified MRP4C50 were also immobilized on the nitrocellulose membrane as positive controls for detection. The detection of the protein interaction was performed using S-protein HRP Conjugate. B, the macromolecular complex formation assay between MRP4C50 and GCCC50via NHERF3. […] D, bar-graph represents the amount of cGMP measured using ELISA from total cell lysate and the supernatant (medium) from T-84 cells treated with ± STc (1 μM, 30 min) ± MK571 (10 μM, 30 min). n represents each data point with n = 6 to 8 obtained from three independent experiments. […] E, bar-graph represents the quantitation of fluid secretion in the mouse enteroids treated with ± STc (1 μM, 30 min) ± MK571 (10 μM, 30 min). Fluid secretion in the mouse enteroids calculated from n = 8 to 25 organoids per condition. […] F, bar-graph represents the quantitation of fluid secretion in the human enteroids treated with ± STc (1 μM, 30 min) ± MK571 (10 μM, 30 min). Fluid secretion in the human enteroids calculated from n = 12 to 17 organoids per condition. […]

[3] = system: MRP4 (cGMP efflux, T-84 cells); test: Extracellular cGMP (ELISA), T-84 cells; format: cell-based; details: STc (1 μM, 30 min) + MK571 (10 μM, 30 min), n = 6 to 8, three independent experiments
Method: as §1

[4] = system: MRP4; fluid secretion in mouse enteroids; test: STc-stimulated fluid secretion in mouse enteroids with MK571; format: cell-based; details: STc (1 μM, 30 min), MK571 (10 μM, 30 min), n = 8 to 25 organoids
Method: as §1
(§2) Intestinal crypt isolation and quantitation of fluid secretion in enteroids […]

[5] = system: MRP4; fluid secretion in human enteroids; test: STc-stimulated fluid secretion in human enteroids with MK571; format: cell-based; details: STc (1 μM, 30 min), MK571 (10 μM, 30 min), n = 12 to 17 organoids
Method: as §1, §2

[6] = system: C-terminal 50 amino acids of GCC (GCCC50); format: binding
[7] = system: GCC catalytic domains (Cyan-GCCcat and Yellow-GCCcat); format: cell-based
[8] = system: FLAG-GCC in HEK-293 cells; format: cell-based
[9] = system: C-terminal 50 amino acids of MRP4 (MRP4C50); format: binding
[10] = system: MRP4C50 and GCCC50; format: binding; details: 4 °C
[11] = molecular target: T1, GCC catalytic domain (GCCcat, amino acids 824-954), purified (human, UniProt P25092 824-954); test: HRP-based binding assay on S-beads; 20 ug purified GCCcat immobilised on S-beads, 7.5 uM Biotin N4-195 overnight at 4 C, washed with PBS 0.2% Triton-X-100, streptavidin HRP with TMB, absorbance at 450 nm; control: S-beads without GCCcat; details: both partners purified
T1 construct: also called GCC catalytic subunit
T1 sequence (P25092 824-954): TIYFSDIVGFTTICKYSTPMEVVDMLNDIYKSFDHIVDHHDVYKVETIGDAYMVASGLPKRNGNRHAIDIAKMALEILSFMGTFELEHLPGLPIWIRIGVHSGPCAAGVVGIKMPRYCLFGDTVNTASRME

[12] = molecular target: T2, GST-NHERF1 (human, UniProt O14745 1-358); test: far-Western, overlay or dot blot; dot blot: GST-NHERF1-4 and GST on nitrocellulose, GCCC50 overlaid, probed with in-house anti-GCC rabbit polyclonal antibody; saturating NHERF, > 1.2 pmoles; details: both partners purified
T2 construct: also called EBP50; GST-tagged NHERF1
T2 sequence (looked up): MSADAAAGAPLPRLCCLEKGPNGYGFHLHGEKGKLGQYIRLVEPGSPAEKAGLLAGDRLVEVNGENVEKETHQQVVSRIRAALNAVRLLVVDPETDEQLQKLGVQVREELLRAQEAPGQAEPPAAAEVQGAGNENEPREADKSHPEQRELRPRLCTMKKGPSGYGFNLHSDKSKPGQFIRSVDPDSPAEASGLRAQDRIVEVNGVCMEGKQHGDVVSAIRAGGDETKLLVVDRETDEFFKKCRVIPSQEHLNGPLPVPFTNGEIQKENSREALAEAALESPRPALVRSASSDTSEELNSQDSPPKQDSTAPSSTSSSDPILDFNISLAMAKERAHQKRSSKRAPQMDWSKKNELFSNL

[13] = molecular target: T3, GST-NHERF2 (human, UniProt Q15599 1-337); test: as above; details: both partners purified
T3 construct: also called E3KARP; GST-tagged NHERF2

[14] = molecular target: T4, GST-NHERF3 (human, UniProt Q5T2W1 1-519); test: as above; details: both partners purified
T4 construct: also called PDZK1; CAP70
T4 sequence (looked up): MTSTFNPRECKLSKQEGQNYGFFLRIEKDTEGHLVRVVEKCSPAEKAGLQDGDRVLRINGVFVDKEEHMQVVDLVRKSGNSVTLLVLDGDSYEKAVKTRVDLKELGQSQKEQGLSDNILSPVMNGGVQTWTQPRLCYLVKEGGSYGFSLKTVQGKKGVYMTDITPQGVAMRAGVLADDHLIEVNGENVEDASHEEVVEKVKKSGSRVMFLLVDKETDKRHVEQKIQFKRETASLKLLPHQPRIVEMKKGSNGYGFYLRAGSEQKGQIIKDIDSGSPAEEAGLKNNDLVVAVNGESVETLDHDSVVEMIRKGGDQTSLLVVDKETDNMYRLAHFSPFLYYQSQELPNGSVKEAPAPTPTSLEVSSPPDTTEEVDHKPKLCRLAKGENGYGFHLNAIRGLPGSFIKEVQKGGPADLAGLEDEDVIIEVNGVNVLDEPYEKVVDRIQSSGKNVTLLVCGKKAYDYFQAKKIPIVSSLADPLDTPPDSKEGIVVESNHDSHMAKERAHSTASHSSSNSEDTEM

[15] = molecular target: T4, GST-NHERF3; test: far-Western, overlay or dot blot; slot blot (macromolecular complex assay): GST-His-S-MRP4-C50 (0, 5 and 20 ug) and GST alone on nitrocellulose, 5 ug GST-NHERF3 overnight at 4 C, then 0.5 ug purified Flag-GCC-C50 at 4 C; detected with a GCC C-terminal specific antibody; details: both partners purified

Molecule: C=C[C@@]1(C)CC(=O)[C@]2(O)[C@@]3(C)[C@@H](O)CCC(C)(C)[C@@H]3[C@H](O)[C@H](OC(C)=O)[C@@]2(C)O1 [Forskolin]
Fluid secretion response (organoid swelling) [1]: highly robust fluid secretion response

Molecule: CN(C)C(=O)CCSC(SCCC(=O)O)c1cccc(/C=C/c2ccc3ccc(Cl)cc3n2)c1 (stereo not drawn) [MK571]
cGMP accumulation (ratiometric FRET) [2]: synergistic accumulation of cGMP | cGMP in the cell supernatant [3]: reduced cGMP concentrations (in the cell supernatant) | STc-stimulated fluid secretion with MK571 [4]: enhanced STc-stimulated fluid secretion | STc-stimulated fluid secretion with MK571 [5]: enhanced STc-stimulated fluid secretion

Molecule: NHERF3: PDZ adaptor protein; GST-fusion protein or HA-tagged construct
Binding order of NHERFs to GCC [6]: highest binding affinity for GCC among the NHERF proteins; also recorded: NHERF3> NHERF1> NHERF2> NHERF4 | FRET efficiency of GCCcat oligomerization [7]: 0.51 ± 0.08 | Binding to GCC with increasing concentrations of STc [8]: not affected | Binding order of NHERFs to MRP4 [9]: NHERF3> NHERF2≥ NHERF1> NHERF4 | Macromolecular complex formation of GCC and MRP4 via NHERF3 [10]: GCC could exist in a macromolecular complex with MRP4 via NHERF3

Molecule: RHAHDVARAQL (not fully specified (N-terminus); also: biotin label, position not given here, also called N4-Biotin) [Biotin-N4-195 peptide]
binding result [11]: binds

Results, then the molecule that gave them:

binding result [12]: binds | binding result [13]: binds | binding result [14]: binds
Molecule: AEFSDMIANSLQKRQAAGIRSQKPRRVASYKKGTLEYLQLNTTDKESTYF (domain or fragment, human, UniProt P25092 1024-1073, looked up) [C-terminal 50 amino acids of GCC (GCCC50)]

binding result [15]: binds
Molecule: AEFSDMIANSLQKRQAAGIRSQKPRRVASYKKGTLEYLQLNTTDKESTYF (domain or fragment, human, UniProt P25092 1024-1073, looked up, also called GCCC50) [Flag-GCC-C-terminal 50 aa]
